Read-outs that look alike come from different tables or passages of the source.
Assay: Storage stability of nasal sprays with preservatives
Excerpt: As the preservative, for example, benzalkonium chloride, which is often employed in the field of nasal drops, may be used. […] In addition to the free acids as such, their partially or completely neutralized salts may also be added to the nasal sprays.

| Compound | storage stability of the nasal spray | storage stability of the nasal spray (preservative in nasal spray, compared to benzalkonium chloride) |
| --- | --- | --- |
| C/C=C/C=C/C(=O)O [sorbic acid] | significant extension of the storage stability | – |
| O=C(O)c1ccccc1 [benzoic acid] | – | significant extension of the storage stability |
